# Source: patent publication US10231954B2, “Neurodegenerative therapies” (LYTIX BIOPHARMA AS, priority 2014, dated 2019)
# Where two headings read alike, the source gives them in different places.
# Key:
# Format in all cases: biochemical
# [1] = target: T1, TLK1 (Homo sapiens, UniProt Q9UKI8); experiment: Kinase profiling TLK1; conditions: for remaining activity at 100 µM: read-out: residual kinase activity, TLK1
# T1 sequence (Q9UKI8 1-766): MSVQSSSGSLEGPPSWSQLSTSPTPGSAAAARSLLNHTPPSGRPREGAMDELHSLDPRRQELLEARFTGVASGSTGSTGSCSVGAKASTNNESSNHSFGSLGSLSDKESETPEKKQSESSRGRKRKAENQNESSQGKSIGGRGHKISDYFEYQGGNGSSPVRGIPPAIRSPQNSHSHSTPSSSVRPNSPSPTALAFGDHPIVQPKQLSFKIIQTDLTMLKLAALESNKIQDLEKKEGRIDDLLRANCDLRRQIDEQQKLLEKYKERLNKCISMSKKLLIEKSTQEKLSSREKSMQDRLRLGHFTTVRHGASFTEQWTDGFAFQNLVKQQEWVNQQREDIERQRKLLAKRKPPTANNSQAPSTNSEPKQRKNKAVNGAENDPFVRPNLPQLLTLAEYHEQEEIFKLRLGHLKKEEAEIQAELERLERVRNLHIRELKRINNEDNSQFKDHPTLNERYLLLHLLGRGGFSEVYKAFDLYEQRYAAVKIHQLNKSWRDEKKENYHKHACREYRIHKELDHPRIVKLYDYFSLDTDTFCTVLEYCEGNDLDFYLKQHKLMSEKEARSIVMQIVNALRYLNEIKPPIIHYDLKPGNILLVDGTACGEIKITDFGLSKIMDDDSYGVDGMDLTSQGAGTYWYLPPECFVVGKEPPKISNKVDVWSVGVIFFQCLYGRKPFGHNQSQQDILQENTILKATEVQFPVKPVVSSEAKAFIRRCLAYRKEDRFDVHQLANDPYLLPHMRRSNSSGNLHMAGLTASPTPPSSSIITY
# Source text: (§1) Any value less that 25 is considered to be highly significant inhibition.
# [2] = target: T2, TGFBR1 (Homo sapiens, UniProt P36897); experiment: Kinase profiling TGFBR1; conditions: for remaining activity at 100 µM: read-out: residual kinase activity, TGFBR1
# T2 sequence (P36897 34-503): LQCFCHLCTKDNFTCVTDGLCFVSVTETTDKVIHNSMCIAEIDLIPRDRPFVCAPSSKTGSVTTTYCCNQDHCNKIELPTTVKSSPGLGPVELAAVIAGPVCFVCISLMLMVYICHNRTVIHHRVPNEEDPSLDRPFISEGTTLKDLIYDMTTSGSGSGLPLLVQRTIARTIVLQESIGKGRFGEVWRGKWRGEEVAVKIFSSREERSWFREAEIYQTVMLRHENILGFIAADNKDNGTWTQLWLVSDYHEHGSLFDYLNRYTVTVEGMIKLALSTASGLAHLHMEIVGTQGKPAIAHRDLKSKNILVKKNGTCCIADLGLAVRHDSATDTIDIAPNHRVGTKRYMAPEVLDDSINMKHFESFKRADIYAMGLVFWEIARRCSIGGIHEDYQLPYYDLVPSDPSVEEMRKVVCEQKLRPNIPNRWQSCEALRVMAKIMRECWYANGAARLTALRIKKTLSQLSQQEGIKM
# Source text: as §1
# [3] = target: PIM2 (Homo sapiens, UniProt Q9P1W9); experiment: Kinase profiling PIM2; conditions: for remaining activity at 100 µM: read-out: residual kinase activity, PIM2
# Source text: as §1
# [4] = target: IR (Homo sapiens, UniProt P06213); experiment: Kinase profiling IR; conditions: for remaining activity at 100 µM: read-out: residual kinase activity, IR
# Source text: as §1
# [5] = target: T3, ULK2 (Homo sapiens, UniProt Q8IYT8); experiment: Kinase profiling ULK2; conditions: for remaining activity at 100 µM: read-out: residual kinase activity, ULK2
# T3 sequence (Q8IYT8 1-1036): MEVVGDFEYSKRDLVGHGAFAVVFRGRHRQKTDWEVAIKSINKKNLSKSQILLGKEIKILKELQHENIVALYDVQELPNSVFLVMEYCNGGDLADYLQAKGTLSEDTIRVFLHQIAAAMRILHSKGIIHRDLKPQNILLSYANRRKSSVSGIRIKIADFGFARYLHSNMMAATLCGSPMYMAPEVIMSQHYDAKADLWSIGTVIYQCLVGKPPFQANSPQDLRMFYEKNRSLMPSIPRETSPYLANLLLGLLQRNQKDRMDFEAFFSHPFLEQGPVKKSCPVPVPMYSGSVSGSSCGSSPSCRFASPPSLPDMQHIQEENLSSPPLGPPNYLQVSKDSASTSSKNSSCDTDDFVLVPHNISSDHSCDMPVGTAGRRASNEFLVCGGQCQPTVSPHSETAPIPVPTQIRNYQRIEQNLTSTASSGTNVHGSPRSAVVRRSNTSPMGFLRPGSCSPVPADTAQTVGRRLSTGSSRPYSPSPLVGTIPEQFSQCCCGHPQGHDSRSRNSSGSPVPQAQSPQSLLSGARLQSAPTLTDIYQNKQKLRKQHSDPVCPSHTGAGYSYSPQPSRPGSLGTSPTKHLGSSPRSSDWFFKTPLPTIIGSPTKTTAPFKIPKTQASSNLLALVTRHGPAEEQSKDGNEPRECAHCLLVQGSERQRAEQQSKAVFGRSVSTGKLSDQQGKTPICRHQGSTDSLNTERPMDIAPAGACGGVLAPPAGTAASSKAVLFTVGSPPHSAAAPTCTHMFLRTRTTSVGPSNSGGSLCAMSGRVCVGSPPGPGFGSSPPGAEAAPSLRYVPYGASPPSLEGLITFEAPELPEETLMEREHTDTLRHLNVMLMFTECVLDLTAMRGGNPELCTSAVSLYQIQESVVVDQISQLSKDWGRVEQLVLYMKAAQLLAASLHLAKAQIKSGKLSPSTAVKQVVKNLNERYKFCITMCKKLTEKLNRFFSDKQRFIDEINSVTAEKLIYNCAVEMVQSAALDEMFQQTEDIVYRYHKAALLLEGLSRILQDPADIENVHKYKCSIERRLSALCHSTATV
# Source text: as §1
# [6] = target: YES1 (Homo sapiens, UniProt P07947); experiment: Kinase profiling YES1; conditions: for remaining activity at 100 µM: read-out: residual kinase activity, YES1
# Source text: as §1
# [7] = 100 micromolar inhibitor concentration, 100 is no change
# [8] = 100 micromolar inhibitor, 100 = no change
# Sequence of IR (P06213 28-1382): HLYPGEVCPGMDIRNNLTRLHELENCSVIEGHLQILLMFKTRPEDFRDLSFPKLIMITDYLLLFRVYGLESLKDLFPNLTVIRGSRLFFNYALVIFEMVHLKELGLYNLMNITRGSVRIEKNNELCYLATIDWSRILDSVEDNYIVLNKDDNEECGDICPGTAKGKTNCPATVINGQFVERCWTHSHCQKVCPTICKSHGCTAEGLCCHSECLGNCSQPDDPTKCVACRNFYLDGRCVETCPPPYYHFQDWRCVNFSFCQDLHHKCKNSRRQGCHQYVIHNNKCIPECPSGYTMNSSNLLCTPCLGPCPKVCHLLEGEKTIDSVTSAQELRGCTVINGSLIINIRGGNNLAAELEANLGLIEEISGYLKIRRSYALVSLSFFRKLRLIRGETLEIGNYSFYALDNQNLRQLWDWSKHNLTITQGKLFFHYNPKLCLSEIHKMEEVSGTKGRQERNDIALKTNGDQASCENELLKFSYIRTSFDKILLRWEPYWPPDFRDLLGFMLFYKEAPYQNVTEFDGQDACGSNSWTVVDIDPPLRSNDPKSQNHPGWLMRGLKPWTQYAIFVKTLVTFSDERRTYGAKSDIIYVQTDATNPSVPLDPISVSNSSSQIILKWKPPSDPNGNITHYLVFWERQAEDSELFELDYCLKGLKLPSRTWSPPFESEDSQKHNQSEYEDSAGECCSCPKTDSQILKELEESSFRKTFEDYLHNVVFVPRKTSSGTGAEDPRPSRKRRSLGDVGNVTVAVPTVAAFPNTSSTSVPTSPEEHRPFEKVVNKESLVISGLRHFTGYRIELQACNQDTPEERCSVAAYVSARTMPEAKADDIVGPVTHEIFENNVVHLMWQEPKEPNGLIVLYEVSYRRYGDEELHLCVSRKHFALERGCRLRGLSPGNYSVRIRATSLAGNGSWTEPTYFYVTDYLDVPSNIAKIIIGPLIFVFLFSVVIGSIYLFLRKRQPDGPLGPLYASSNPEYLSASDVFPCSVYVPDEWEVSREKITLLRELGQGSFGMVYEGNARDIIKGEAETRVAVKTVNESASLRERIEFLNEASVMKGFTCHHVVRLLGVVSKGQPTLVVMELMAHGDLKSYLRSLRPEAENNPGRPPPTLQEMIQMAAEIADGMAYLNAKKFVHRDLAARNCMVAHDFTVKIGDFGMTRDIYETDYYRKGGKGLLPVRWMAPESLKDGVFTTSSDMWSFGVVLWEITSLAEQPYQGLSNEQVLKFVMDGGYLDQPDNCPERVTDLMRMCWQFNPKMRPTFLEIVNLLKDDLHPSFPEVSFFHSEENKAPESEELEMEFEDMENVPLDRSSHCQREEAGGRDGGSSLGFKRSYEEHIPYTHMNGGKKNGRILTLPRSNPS
# Sequence of YES1 (P07947 whole entry, species assumed): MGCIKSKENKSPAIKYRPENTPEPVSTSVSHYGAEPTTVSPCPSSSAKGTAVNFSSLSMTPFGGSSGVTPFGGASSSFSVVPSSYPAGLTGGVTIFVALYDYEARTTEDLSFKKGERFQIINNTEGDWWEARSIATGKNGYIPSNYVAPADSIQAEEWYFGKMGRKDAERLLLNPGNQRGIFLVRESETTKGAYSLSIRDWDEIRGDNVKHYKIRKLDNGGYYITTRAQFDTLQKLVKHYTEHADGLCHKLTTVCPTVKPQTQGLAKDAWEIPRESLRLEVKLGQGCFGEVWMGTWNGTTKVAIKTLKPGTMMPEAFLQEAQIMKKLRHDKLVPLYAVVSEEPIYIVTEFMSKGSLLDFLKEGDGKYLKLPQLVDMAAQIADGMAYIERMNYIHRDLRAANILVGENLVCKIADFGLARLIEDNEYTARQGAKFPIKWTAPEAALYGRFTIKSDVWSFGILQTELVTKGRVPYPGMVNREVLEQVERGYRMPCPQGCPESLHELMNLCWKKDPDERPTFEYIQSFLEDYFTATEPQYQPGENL
# Sequence of PIM2 (Q9P1W9 whole entry, species assumed): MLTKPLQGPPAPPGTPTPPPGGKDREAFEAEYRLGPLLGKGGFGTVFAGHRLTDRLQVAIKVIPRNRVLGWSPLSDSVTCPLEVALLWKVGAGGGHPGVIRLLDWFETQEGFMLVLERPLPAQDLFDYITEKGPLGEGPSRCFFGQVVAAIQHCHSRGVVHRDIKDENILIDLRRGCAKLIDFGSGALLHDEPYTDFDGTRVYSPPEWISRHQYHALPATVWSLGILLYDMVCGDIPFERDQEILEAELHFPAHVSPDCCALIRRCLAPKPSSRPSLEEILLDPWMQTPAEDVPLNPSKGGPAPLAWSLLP
Structure (SMILES),"residual kinase activity, TLK1 [1, 7]","residual kinase activity, TGFBR1 [2, 7]","residual kinase activity, PIM2 [3, 7]","residual kinase activity, IR [4, 7]","residual kinase activity, ULK2 [5, 7]","residual kinase activity, YES1 [6, 7]","remaining activity at 100 µM [1, 7]","remaining activity at 100 µM [3, 7]","remaining activity at 100 µM [4, 7]","remaining activity at 100 µM [6, 7]",further results
O=C(Nc1nc2cc(O)ccc2s1)c1ccncc1 [Compound 03-11],95,107,89,106,86,82,,,,,
CC(=O)Nc1nc2cc(C)ccc2s1 [Compound 03-76],106,98,82,97,88,104,,,,,
"CC(=O)Nc1nc2cc(O)ccc2s1 [Compound 01-66, N-(5-hydroxybenzo[d]thiazol-2-yl)acetamide]",,,,,,,,,,,remaining activity at 100 µM [1]: 92%; remaining activity at 100 µM [3]: 16%; remaining activity at 100 µM [4]: 63%; remaining activity at 100 µM [6]: 72%
CC(=O)Nc1nc2ccc(C(F)(F)F)cc2s1 [Compound 01-90],,,,,,,82%,94%,84%,57%,"remaining activity at 100 µM [5, 7]: 78%"
CC(=O)Nc1nc2ccc(O)cc2s1 [Compound 01-71],,,,,,,45%,38%,35%,59%,
O=C(Nc1nc2ccc(O)cc2s1)c1ccccc1 [Compound 03-60],74,93,67,31,69,65,,,,,
CC(=O)Nc1nc2ccc(C#N)cc2s1 [Compound 01-94],,,,,,,53%,73%,81%,86%,"remaining activity at 100 µM [5, 7]: 68%"
COc1ccc2sc(NC(C)=O)nc2c1 [Compound 03-21],,,,,,,97%,48%,109%,93%,"remaining activity at 100 µM [2, 7]: 124%; remaining activity at 100 µM [5, 7]: 86%"
O=C(Nc1nc2ccc(O)cc2s1)c1ccncc1 [Compound 08-42],97,106,90,51,63,79,,,,,
"CC(=O)Nc1cccc(NC(=O)c2nc3ccc(O)cc3s2)c1 [Compound 03-07, N-(3-acetamidophenyl)-6-hydroxybenzo[d]thiazole-2-carboxamide]",,,,,,,,,,,"remaining activity at 100 µM [1, 8]: 108%; remaining activity at 100 µM [2, 8]: 113%; remaining activity at 100 µM [3, 8]: 61%; remaining activity at 100 µM [4, 8]: 66%; remaining activity at 100 µM [5, 8]: 81%; remaining activity at 100 µM [6, 8]: 49%"
O=C(Nc1nc2cc(O)ccc2s1)c1ccccn1 [Compound 03-13],99,109,77,74,56,60,,,,,
O=C(Nc1nc2ccc(O)cc2s1)c1ccccn1 [Compound 03-12],96,117,75,27,87,73,,,,,
O=C(Nc1nc2ccc(O)cc2s1)c1cccnc1 [Compound 08-44],90,103,76,35,84,74,,,,,
CC(=O)Nc1nc2cc(C(F)(F)F)ccc2s1 [Compound 03-73],,,,,,,103%,63%,102%,108%,"remaining activity at 100 µM [2, 7]: 118%; remaining activity at 100 µM [5, 7]: 88%"
CC(=O)Nc1nc2ccccc2s1 [Compound 03-32],92,92,100,87,92,93,,,,,
CC(=O)Nc1nc2cc(F)ccc2s1 [Compound 03-77],,,,,,,89%,62%,87%,85%,"remaining activity at 100 µM [2, 7]: 96%; remaining activity at 100 µM [5, 7]: 83%"
O=C(Nc1nc2cc(O)ccc2s1)c1cccnc1 [Compound 03-33],97,88,69,105,85,91,,,,,
